Results as given in US6344179B1, “Fluoralkenyl nortropanes” (Emory University, priority 1999, dated 2002).
Like-named read-outs stand apart in the source and are kept apart here.

Legend:
[1] = target: T1, human DAT (Homo sapiens, UniProt Q01959); assay: Competitive binding in transfected cell lines, [3H]WIN 35428
T1 construct: expressed in transfected cells

[2] = target: T2, norepinephrine transporter (Homo sapiens, UniProt P23975); assay: Competitive binding in transfected cell lines, [3H]Nisoxetine; details: [3H]Nisoxetine; transfected cell lines; read-out: NET, Ki
T2 construct: expressed in transfected cells

[3] = target: T3, human SERT (Homo sapiens, UniProt P31645); assay: Competitive binding in transfected cell lines, [3H]Citalopram
T3 construct: expressed in transfected cells

[4] = tested on: striatal DAT; assay: PET imaging in awake rhesus monkeys; format: in vivo, rhesus monkey
Procedure: The regional kinetics of [^18F] […] Both [^18F] […] [^18F] […] The peak uptake ratio of striatumwcerebellum was 4:1 at 20 minutes for [^18F] […] 6d. The in vivo ratio of [1^18F] […] FECNT, 5:1. [^18F]

[5] = In vivo regional brain tissue distribution of 18F-labeled ligands in rats; design: species or system Sprague Dawley rats; details: rat; for Regional uptake of radioactivity, Cerebellum / Regional uptake of radioactivity, Cortex (Cx) / Regional uptake of radioactivity, Striatum / S/Cereb (striatum to cerebellum ratio) / S/Cx (striatum to cortex ratio) / Uptake of radioactivity, Blood / Uptake of radioactivity, Brain: i.v., 18F-labeled
Source text: The in vivo regional brain tissue distribution of [^18F]

[6] = target: T4, rat brain DAT (Rattus norvegicus, UniProt P23977); assay: In vivo specificity: RTI-113 block before the 18F ligand in rats
T4 construct: from tissue; host or cells: brain of living male Sprague Dawley rats (striatum, cortex, cerebellum dissected)
Procedure: To determine the in vivo specificity of FBNT analogs [^18F] […] 6a, 6d and 6e. The rats were sacrificed 60 minutes after injection of [^18F] […] 6a, 6d and 6e, in the DAT transporter rich striatum.

[7] = [3H]Citalopram, cells transfected with human SERT, read-out: 5-HTT, Ki
[8] = 60 min, 5 mg/kg RTI-113 i.v. 15 minutes prior

T1 sequence (Q01959 whole entry): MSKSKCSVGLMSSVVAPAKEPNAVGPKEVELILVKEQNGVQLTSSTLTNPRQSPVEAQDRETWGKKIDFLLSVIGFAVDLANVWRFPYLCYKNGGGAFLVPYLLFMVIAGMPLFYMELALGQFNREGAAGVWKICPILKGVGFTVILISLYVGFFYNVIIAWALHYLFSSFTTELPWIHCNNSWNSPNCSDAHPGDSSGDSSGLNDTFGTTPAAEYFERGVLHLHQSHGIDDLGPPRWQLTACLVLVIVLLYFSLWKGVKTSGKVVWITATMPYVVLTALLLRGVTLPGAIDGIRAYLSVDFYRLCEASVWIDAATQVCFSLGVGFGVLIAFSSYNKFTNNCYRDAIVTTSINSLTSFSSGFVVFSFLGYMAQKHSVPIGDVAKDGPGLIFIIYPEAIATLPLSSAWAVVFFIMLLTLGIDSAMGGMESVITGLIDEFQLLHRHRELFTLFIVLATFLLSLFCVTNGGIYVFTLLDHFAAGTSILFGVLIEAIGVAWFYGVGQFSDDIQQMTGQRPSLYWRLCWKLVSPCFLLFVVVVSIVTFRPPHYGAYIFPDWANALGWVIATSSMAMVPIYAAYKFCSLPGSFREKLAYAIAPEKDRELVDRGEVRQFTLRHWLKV
T4 sequence (P23977 whole entry): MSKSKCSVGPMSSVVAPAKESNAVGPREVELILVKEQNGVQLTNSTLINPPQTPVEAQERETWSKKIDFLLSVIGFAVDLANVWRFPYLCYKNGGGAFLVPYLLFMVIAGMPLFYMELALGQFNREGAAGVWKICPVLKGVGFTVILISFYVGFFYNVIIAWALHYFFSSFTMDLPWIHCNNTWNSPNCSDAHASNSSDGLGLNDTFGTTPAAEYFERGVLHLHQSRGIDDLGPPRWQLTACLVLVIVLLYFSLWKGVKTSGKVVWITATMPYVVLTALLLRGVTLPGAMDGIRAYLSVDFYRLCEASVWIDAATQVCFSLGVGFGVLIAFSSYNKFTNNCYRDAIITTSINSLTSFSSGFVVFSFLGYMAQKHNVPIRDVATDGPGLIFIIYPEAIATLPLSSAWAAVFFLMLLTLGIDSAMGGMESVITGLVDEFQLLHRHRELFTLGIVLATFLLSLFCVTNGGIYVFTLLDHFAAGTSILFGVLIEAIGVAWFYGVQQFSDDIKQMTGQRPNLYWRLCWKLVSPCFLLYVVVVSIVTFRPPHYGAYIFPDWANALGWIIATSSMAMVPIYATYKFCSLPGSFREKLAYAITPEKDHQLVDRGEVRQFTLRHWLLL
T3 sequence (P31645 whole entry): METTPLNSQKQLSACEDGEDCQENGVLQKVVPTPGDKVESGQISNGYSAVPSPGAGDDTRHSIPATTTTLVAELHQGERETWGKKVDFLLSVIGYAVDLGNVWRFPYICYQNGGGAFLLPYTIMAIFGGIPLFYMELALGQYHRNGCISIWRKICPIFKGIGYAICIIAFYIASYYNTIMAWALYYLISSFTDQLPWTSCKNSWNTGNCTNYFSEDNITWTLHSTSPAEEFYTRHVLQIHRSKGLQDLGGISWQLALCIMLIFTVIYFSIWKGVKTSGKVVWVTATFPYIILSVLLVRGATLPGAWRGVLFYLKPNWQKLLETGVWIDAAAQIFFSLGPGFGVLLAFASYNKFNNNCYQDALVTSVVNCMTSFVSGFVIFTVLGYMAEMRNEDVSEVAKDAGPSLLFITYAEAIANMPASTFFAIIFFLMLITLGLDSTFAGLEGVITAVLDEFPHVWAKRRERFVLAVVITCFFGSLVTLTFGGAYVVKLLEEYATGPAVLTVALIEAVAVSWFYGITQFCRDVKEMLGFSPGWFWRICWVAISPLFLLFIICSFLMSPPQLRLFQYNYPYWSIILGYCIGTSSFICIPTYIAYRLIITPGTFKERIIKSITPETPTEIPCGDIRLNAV
T2 sequence (P23975 whole entry): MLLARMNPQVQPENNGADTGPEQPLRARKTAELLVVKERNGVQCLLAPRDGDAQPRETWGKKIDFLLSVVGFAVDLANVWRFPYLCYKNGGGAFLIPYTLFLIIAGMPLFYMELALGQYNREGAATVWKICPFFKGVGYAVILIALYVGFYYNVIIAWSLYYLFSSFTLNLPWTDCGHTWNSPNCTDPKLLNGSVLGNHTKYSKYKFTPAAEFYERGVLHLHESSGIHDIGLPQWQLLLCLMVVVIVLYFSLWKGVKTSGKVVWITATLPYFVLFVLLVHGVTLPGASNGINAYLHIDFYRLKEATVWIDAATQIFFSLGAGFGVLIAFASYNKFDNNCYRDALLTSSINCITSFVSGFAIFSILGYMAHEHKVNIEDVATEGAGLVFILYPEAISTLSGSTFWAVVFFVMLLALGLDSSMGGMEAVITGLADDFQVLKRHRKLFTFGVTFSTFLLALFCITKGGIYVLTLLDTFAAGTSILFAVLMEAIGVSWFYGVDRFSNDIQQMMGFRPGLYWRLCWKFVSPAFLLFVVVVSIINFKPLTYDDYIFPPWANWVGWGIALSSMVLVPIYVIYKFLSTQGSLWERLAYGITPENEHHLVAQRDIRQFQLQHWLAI

Work on `COC(=O)[C@H]1[C@@H](c2ccc(F)cc2)C[C@@H]2CC[C@H]1N2C/C=C/I` [Altropane, reference compound] yielded a Ki ([1]; [3H]WIN 35428 as reference, cells transfected with human DAT, read-out: DAT, Ki) of 0.00078 µM, a Ki [2] greater than 10 µM and a Ki [3, 7] of 0.0554 µM.
With `COC(=O)[C@H]1[C@@H](c2ccc(Cl)cc2)C[C@@H]2CC[C@H]1N2C/C=C\CF` [6f, N-((Z)-4-fluorobut-2-en-1-yl)-2β-carbomethoxy-3β-(4-chlorophenyl) nortropane] the “initial uptake in striatum and cerebellum” value ([4]; awake rhesus monkeys) was “high initial uptake in the striatum and very little uptake in the cerebellum”.
For “N-((E)-4-fluorobut-2-en-1-yl)-2β-carbomethoxy-3β-phenylnortropane [6a]”, the “selectivity for DAT over SERT” value ([1]; from binding in transfected cells) was 14 times, the “selectivity for DAT” value ([1]; in vitro competitive binding) was “very high selectivity” and the Ki [2] was greater than 10 µM. The Ki [3, 7] was 0.102 µM, the “clearance from striatal tissue” value ([5]; at 60 minutes compared to 5 minutes post injection) was 75% and the “clearance from striatal tissue” value ([5]; at 120 minutes compared to 5 minutes post injection) was 90%. The “Regional uptake of radioactivity, Cerebellum” value (from here on “Regional uptake … Cerebellum”) ([5]; 5 min) was 0.55 % dose/g, the “Regional uptake of radioactivity, Cortex (Cx)” value (shortened to “Regional uptake … (Cx)”) ([5]; 5 min) was 0.84 % dose/g and the “Regional uptake of radioactivity, Striatum” value (from here on “Regional uptake … Striatum”) ([5]; 5 min) was 1.25 % dose/g. For the same compound, the “S/Cereb (striatum to cerebellum ratio)” value ([5]; 5 min) was 2.27, the “S/Cx (striatum to cortex ratio)” value ([5]; 5 min) was 1.49 and the “Uptake of radioactivity, Blood” value ([5]; 5 min) was 0.22 % dose/g. For the same compound, the “Uptake of radioactivity, Brain” value ([5]; 5 min) was 0.58 % dose/g, the “Regional uptake … Cerebellum” value ([5]; 30 min) was 0.12 % dose/g and the “Regional uptake … (Cx)” value ([5]; 30 min) was 0.19 % dose/g. The “Regional uptake … Striatum” value ([5]; 30 min) was 0.36 % dose/g, the “S/Cereb (striatum to cerebellum ratio)” value ([5]; 30 min) was 3.0 and the “S/Cx (striatum to cortex ratio)” value ([5]; 30 min) was 1.89. For the same compound, the “Uptake of radioactivity, Blood” value ([5]; 30 min) was 0.15 % dose/g, the “Uptake of radioactivity, Brain” value ([5]; 30 min) was 0.13 % dose/g and the “Regional uptake … Cerebellum” value ([5]; 60 min) was 0.09 % dose/g. The “Regional uptake … (Cx)” value ([5]; 60 min) was 0.13 % dose/g, the “Regional uptake … Striatum” value ([5]; 60 min) was 0.25 % dose/g and the “S/Cereb (striatum to cerebellum ratio)” value ([5]; 60 min) was 2.78. The “S/Cx (striatum to cortex ratio)” value ([5]; 60 min) was 1.92, the “Uptake of radioactivity, Blood” value ([5]; 60 min) was 0.11 % dose/g and the “Uptake of radioactivity, Brain” value ([5]; 60 min) was 0.09 % dose/g. For the same compound, the “Regional uptake … Cerebellum” value ([5]; 120 min) was 0.07 % dose/g, the “Regional uptake … (Cx)” value ([5]; 120 min) was 0.09 % dose/g and the “Regional uptake … Striatum” value ([5]; 120 min) was 0.13 % dose/g. The “S/Cereb (striatum to cerebellum ratio)” value ([5]; 120 min) was 1.86, the “S/Cx (striatum to cortex ratio)” value ([5]; 120 min) was 1.86 and the “Uptake of radioactivity, Blood” value ([5]; 120 min) was 0.07 % dose/g. For the same compound, the “Uptake of radioactivity, Brain” value ([5]; 120 min) was 0.07 % dose/g, the “Regional uptake … Cerebellum” value [6, 8] was 0.09 % dose/g and the “Regional uptake … (Cx)” value [6, 8] was 0.10 % dose/g. The “Regional uptake … Striatum” value [6, 8] was 0.11 % dose/g, the “S/Cereb (striatum to cerebellum ratio)” value [6, 8] was 1.22 and the “S/Cx (striatum to cortex ratio)” value [6, 8] was 1.10. For the same compound, the “Uptake of radioactivity, Blood” value [6, 8] was 0.12 % dose/g, the “Uptake of radioactivity, Brain” value [6, 8] was 0.07 % dose/g and the “effect of RTI-113 on uptake in the striatum” value ([6]; RTI-113 5 mg/kg i.v. 15 minutes prior, 60 minutes) was “significantly blocked”. For the same compound, the “retention of radioactivity in the striatum” value ([4]; awake rhesus monkey, PET images) was “no visible retention of radioactivity in the striatum”.
With `COC(=O)[C@H]1[C@@H](c2ccc(I)cc2)C[C@@H]2CC[C@H]1N2C/C=C/CF` [6c, N-((E)-4-fluorobut-2-en-1-yl)-2β-carbomethoxy-3β-(4-iodophenyl)nortropane] the Ki [1] was 0.00017 µM and the Ki [3] was 0.00021 µM.
